Test results reported in ChEMBL document CHEMBL5500373, “Lead optimization based design, synthesis, and pharmacological evaluation of quinazoline derivatives as multi-targeting agents for Alzheimer's disease treatment” (Eur J Med Chem, 2024).
pIC50: −log10 of the molar value.

What was measured:
Drosophila melanogaster [1] = assay: Reversal of ey-GAL4 driven UAS-amyloid beta induced cellular toxicity in Drosophila melanogaster Oregon R-positive model assessed as reduction in mild ommatidial death eye phenotype at 10 uM by trinocular stereo-zoom microscope relative to control; format: functional; design: scale not given: the % may be the effect or the level left
[2] = Acute toxicity in female Wistar rat assessed as histopathological changes in liver at 100 to 500 mg/kg, po measured after 14 days; format: organism-based; details: in vivo, 336 h, dose 100-500 mg/kg, time 14 day
[3] = Cmax in male Wistar rat at 20 mg/kg, po measured upto 32 hrs by high-performance liquid chromatography; format: ADME, organism-based; details: in vivo
[4] = Elimination half life in male Wistar rat at 20 mg/kg, po measured upto 32 hrs by high-performance liquid chromatography; format: ADME, organism-based; details: in vivo, read-out: beta t1/2 (converted)
[5] = Toxicity in Drosophila melanogaster Oregon R-positive assessed as reduction in eclosed flies at embryonic stage at 200 uM measured until 15 days relative to control; design: scale not given: the % may be the effect or the level left; details: 360 h, time 15 day
Drosophila melanogaster [6] = assay: Reversal of ey-GAL4 driven UAS-amyloid beta induced cellular toxicity in Drosophila melanogaster Oregon R-positive model assessed as reduction in mild ommatidial death eye phenotype at 15 uM by trinocular stereo-zoom microscope relative to control; format: functional; design: scale not given: the % may be the effect or the level left
[7] = Acute toxicity in female Wistar rat assessed as adverse side effects at 100 to 500 mg/kg, po measured after 14 days; format: organism-based; details: in vivo, 336 h, dose 100-500 mg/kg, time 14 day
[8] = Acute toxicity in female Wistar rat assessed as signs of toxicity at 100 to 500 mg/kg, po measured after 14 days; format: organism-based; details: in vivo, 336 h, dose 100-500 mg/kg, time 14 day
[9] = Drug concentration in male Wistar rat brain homogenate at 10 mg/kg, po measured after 4 days; format: ADME, organism-based; details: time 4 day, read-out: Ct
[10] = target: Amyloid-beta precursor protein (Homo sapiens) (UniProt P05067); assay: Inhibition of self induced amyloid beta (1 to 42 residues) (unknown origin) aggregation at 5 to 20 uM measured after 48 hrs by thioflavin T based fluorescence analysis relative to control; details: dose 5-20 µM
[11] = MRT in male Wistar rat at 20 mg/kg, po measured upto 32 hrs by high-performance liquid chromatography; format: ADME, organism-based; details: in vivo
Beta-secretase 1 = Beta-secretase 1 (Homo sapiens, UniProt P56817); assay: Inhibition of human BACE-1 measured after 2 hrs by FRET assay
Drosophila melanogaster [12] = assay: Reversal of ey-GAL4 driven UAS-amyloid beta induced cellular toxicity in Drosophila melanogaster Oregon R-positive model assessed as increase in cell viability in gut at 1 uM by MTT assay relative to control; format: functional
Drosophila melanogaster [13] = assay: Reversal of ey-GAL4 driven UAS-amyloid beta induced cellular toxicity in Drosophila melanogaster Oregon R-positive model assessed as reduction in severe ommatidial death eye phenotype at 10 uM by trinocular stereo-zoom microscope relative to control; format: functional; design: scale not given: the % may be the effect or the level left
Drosophila melanogaster [14] = assay: Reversal of ey-GAL4 driven UAS-amyloid beta induced cellular toxicity in Drosophila melanogaster Oregon R-positive model assessed as reduction in severe ommatidial death eye phenotype at 15 uM by trinocular stereo-zoom microscope relative to control; format: functional; design: scale not given: the % may be the effect or the level left
[15] = AUC (0 to t) in male Wistar rat at 20 mg/kg, po measured upto 32 hrs by high-performance liquid chromatography; format: ADME, organism-based; details: in vivo

Amyloid-beta precursor protein (Homo sapiens), sequence (P05067 whole entry, the tested form may be a part): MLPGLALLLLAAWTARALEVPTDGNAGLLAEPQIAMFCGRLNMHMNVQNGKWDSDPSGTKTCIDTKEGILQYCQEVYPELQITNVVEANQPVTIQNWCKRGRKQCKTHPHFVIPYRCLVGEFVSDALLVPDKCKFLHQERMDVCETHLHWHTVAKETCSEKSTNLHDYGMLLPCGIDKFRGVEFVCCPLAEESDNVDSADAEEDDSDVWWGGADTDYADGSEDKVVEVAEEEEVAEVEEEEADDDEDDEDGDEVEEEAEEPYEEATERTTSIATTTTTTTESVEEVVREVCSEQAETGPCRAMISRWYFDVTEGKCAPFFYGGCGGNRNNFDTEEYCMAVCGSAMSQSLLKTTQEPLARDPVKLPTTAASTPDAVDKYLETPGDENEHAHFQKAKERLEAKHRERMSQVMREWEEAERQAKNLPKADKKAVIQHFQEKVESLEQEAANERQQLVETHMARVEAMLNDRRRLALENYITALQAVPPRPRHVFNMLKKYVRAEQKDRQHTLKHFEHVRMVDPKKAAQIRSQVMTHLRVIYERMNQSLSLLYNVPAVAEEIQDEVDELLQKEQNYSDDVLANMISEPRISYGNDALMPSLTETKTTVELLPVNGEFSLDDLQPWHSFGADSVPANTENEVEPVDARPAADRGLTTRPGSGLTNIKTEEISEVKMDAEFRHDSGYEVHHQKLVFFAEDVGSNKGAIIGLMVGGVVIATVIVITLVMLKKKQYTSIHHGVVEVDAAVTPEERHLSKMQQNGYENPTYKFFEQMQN
Beta-secretase 1, sequence (P56817 whole entry, the tested form may be a part): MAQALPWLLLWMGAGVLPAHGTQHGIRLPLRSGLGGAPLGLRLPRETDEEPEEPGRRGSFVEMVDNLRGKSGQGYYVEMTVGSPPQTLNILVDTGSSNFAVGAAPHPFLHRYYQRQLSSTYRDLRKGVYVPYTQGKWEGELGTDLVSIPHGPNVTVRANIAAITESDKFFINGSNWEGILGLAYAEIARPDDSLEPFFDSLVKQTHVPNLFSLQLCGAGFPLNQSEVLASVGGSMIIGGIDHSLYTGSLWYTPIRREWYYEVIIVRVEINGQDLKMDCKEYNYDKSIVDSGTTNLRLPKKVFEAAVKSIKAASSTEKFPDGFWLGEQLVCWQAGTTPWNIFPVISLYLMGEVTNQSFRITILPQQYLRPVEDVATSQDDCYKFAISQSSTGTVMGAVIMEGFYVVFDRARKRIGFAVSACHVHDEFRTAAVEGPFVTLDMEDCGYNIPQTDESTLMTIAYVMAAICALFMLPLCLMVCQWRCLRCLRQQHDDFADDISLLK

In the case of `COc1cc2ncnc(N3CCN(Cc4ccccc4)CC3)c2cc1OC`, the Activity (Drosophila melanogaster [1]) was 37%, the Activity [2] was “Non-Toxic” and the Cmax [3] was 1340 ng/mL. For the same compound, the half-life [4] was 3.11 h, the Activity [5] was 100% and the Activity (Drosophila melanogaster [6]) was 30%. The Activity [7] was “Non-Toxic”, the Activity [8] was “Non-Toxic” and the concentration at 96 h [9] was 633 ng/mL. For the same compound, the inhibition [10] was 27.3%, the MRT [11] was 6.07 h and the pIC50 (Beta-secretase 1) was 6.64. The Activity (Drosophila melanogaster [12]) was 69%, the Activity (Drosophila melanogaster [13]) was 23.3% and the Activity (Drosophila melanogaster [14]) was 20%. For the same compound, the AUC(0-t) at 32 h [15] was 6990 ng·h/mL.
